According to patent US8546442B2, “Pyrazolopiperidine compounds as CCR1 receptor antagonists” (Boehringer Ingelheim International GmbH, priority 2010, dated 2013):

Experiments:
CCR1 [1] = target: T1, CCR1 (Homo sapiens, UniProt P32246); test: calcium flux in CCR1 transfected cells, Method A (Fluo-4 NW, FLIPR TETRA); format: cell-based; details: cells stably expressing recombinant CCR1 and G-alpha-16, MIP-1 alpha at EC80
T1 sequence (P32246 1-355): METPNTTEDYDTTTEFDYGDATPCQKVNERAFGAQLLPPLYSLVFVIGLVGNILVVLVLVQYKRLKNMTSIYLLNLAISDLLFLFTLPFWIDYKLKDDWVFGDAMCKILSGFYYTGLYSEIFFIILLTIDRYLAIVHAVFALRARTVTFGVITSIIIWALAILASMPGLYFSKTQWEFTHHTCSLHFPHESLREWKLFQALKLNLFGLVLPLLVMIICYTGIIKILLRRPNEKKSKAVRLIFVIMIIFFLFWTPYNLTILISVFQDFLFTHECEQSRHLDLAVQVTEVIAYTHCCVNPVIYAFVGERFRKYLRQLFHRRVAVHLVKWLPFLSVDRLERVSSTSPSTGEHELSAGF
Experimental: (§1) Compounds are assessed for the ability to block the interaction of CCR1 and MIP-1α in a functional cellular assay measuring calcium flux in CCR1 transfected cells.
Method A: Non-adherent cells purchased from Chemicon Corporation (HTS005C), stably expressing recombinant CCR1 and G-alpha-16 are grown in RPMI 1640 medium (Mediatech 10-080-CM) supplemented with 10% heat-inactivated FBS, 0.4 mg/mL Geneticin and penicillin/streptomycin. On the day of the assay, the cells are transferred to a beaker and dye-loaded in bulk using a Fluo-4 NW Calcium Assay Kit with probenecid (Invitrogen F36205) at 0.8E6 cells/mL for 1 hour at room temperature. After 1 hour, they are seeded in a 384-well tissue culture-treated plate at a density of 20,000 cells/well. Appropriately diluted test compound is added to the well to achieve a top concentration of 3,000 nM (diluted 4-fold with 10 doses total). The final concentration of DMSO is 1%. The buffer is HBSS (Invitrogen 14025) with 20 mM HEPES at pH 7.4. The cells are allowed to incubate 1 hour in the dark at room temperature. The plates are transferred to the FLIPR TETRA where MIP-1 alpha in 1% BSA is added at the EC80 final concentration. Wells+/−MIP-1 alpha containing diluted DMSO instead of compound serve as the controls. Intracellular calcium flux is recorded on the FLIPR TETRA, using excitation at 470/495 nm and emission at 515/575 nm. Data are analyzed using Activity Base software.

CCR1 [2] = target: T1, CCR1; test: calcium flux in CCR1 transfected cells, Method B (Calcium 4 dye, HAMAMATSU FDSS6000); format: cell-based; details: cells stably expressing recombinant CCR1 and G-alpha-16, MIP-1alpha at EC80
Experimental: as §1
Method B: Non-adherent cells purchased from Chemicon Corporation (HTS005C), stably expressing recombinant CCR1 and G-alpha-16 are grown in RPMI 1640 medium (Mediatech 10-080-CM) supplemented with 10% FBS, 0.4 mg/mL Geneticin and penicillin/streptomycin. On the day of the assay, the cells are loaded with Calcium 4 dye (Molecular Devices R7448) with Probenecid (Invitrogen P346400) at 8E5 cells/mL for 1 hour at room temperature. After 1 hour, they are seeded in a 384-well tissue culture-treated plate at a density of 20,000 cells/well. Appropriately diluted test compound is added to the well to achieve a top concentration of 3,000 nM (diluted 4-fold with 10 doses total). The final concentration of DMSO is 1%. The buffer is HBSS (Invitrogen 14025) with 20 mM HEPES at pH 7.4. The cells incubate 30 minutes at 37 C and then 30 minutes at room temperature. The plates are transferred to the HAMAMATSU FDSS6000 where MIP-1alpha in 1% BSA is added at the EC80 final concentration. All plates must be read within 4 hours of the start of dye-loading. Wells+/−MIP-1alpha containing diluted DMSO instead of compound serve as the controls. Data are analyzed using Activity Base software.

SMILES	IC50 (CCR1 [1]) [nM]	IC50 (CCR1 [2]) [nM]
CCC[C@H](NC(=O)N1CCCc2c1cnn2-c1ccc(F)cc1)c1ccc(Br)nc1 [Example 49]	12	2
CCCC(NC(=O)N1CCCc2c1cnn2-c1ccc(F)cc1)c1cncc(Br)c1 (stereo not drawn) [Example 39]	0.2	0.4
CNS(=O)(=O)c1ccc(CNC(=O)N2CCCc3c2cnn3-c2ccc(F)cc2)c(F)c1 [Example 38]	11	2
C[C@H](NC(=O)N1CCCc2c1cnn2-c1ccc(F)cc1)c1cncc(Br)c1 [Example 41]	6	2
CCCC(NC(=O)N1CCCc2c1cnn2-c1ccc(F)cc1)c1ccc(S(C)(=O)=O)nc1 (stereo not drawn) [Example 36]	3	3
CS(=O)(=O)c1ccc(CNC(=O)N2CCCc3c2cnn3-c2ccc(F)cc2)cc1 [Example 25]	51	65
CNS(=O)(=O)c1ccc(CNC(=O)N2CCCc3c2cnn3-c2ccc(F)cc2)c(Cl)c1 [Example 31]	3	1
CCC[C@H](NC(=O)N1c2cnn(-c3ccc(F)cc3)c2CCC1C(F)(F)F)c1cncc(S(C)(=O)=O)c1 (stereo partly drawn) [Example 61]	12	8
CC[C@H](NC(=O)N1CCCc2c1cnn2-c1ccc(F)cc1)c1cncc(Br)c1 [Example 42]	0.4	0.2
